Patent publication US7718768B2, “Biologically active peptide [sequence]” (CMS Peptides Patent Holding Company Limited, priority 2001, dated 2010)
Marks after values point to notes of the source that are not given here. No end group written: not given here.

Key:
[1] = tested on: NK cell; assay: NK cell cytotoxicity activity test (YAC-1 target cells, MTT) on spleen cells of treated mice; assay type: in vivo, BALB/c mice; conditions: IFN-γ and IL-2 groups 3×10^5 IU/kg/day, X ± SD
Method: (§1) The above substances were all dissolved in 0.5 ml saline and injected intraperitoneal (i.p.) for 15 continuous days, once per day.
(§2) Ten mice per group. The day after the last test substance administration, the mice were sacrificed by cervical dislocation. The spleen was isolated aseptically and manually dispersed in cold D-Hank's solution using an injection needle. The dispersed cell suspension was further sieved through a 100 gauge 150 μm diameter stainless steel sieve. After centrifugation at 200 g for 10 minutes, the supernatant was discarded. The cell pellet was re-suspended in 10 volume of Tris-NH4Cl buffer and then kept standing still for 10 minutes at room temperature. The suspended cells were collected by centrifugation at 150 g for 10 minutes. The cells were washed 2-4 times with cold D-Hank's solution by re-suspending and collecting by centrifugation with condition as described above. The washed cells were then diluted to the desired cell densities by RPMI-1640 culture medium, containing 10% fetal bovine serum.
Mice spleen cells were prepared to 4×10^6/ml as described in section 1.1 above. Target cells YAC-1 were brought to log phase and adjusted to 1×10^5/ml. Using a 96 wells cell culture plate, 100 μl mouse spleen cells and 100 μl culture medium were added to the control well containing only the spleen cells; 100 μl target cells and 100 μl culture medium were added to the control well containing only target cells; 100 μl mouse spleen cells and 100 μl target cells were added to the NK activity assay well. Three parallel sets of the above were prepared per mouse.
Samples were centrifuged at 150 g for 10 minutes to collect the cells. The supernatant was discarded and 50 μl/well MTT of 1 mg/ml was added. The reaction mixture was then shaken for 2 minutes, and incubated at 37° C., 5% CO2 for 4 hours. The supernatant was discarded after centrifugation at 150 g for 10 minutes. 120 μl 40 mM HCl-2-propanol was added and shaken for 3 minutes. An ELISA reader was used to obtain OD570nm of each well referenced at 630 nm.

[2] = tested on: T lymphocyte; assay: T lymphocyte IL-2 secretion test (HT-2 cell bioassay of ConA supernatant); assay type: in vivo, BALB/c mice; conditions: IFN-γ and IL-2 groups 3×10^5 IU/kg/day, X ± SD
Method: as §1
(§3) Spleen cells of density 1×10^6/ml were placed onto a 96 wells cell culture plate, 100 μl/well, three parallel wells each of the assay sample and control sample per mouse. To the assay wells, 100 μl/well ConA of 100 μg/ml in RPMI-1640 was added, and 100 μl/well plain RPMI-1640 was used for the controls. The cells were incubated for 66 hrs at 37° C., 5% CO2. The cells were then pelleted by centrifugation at 150 g for 10 minutes.
HT-2 cells at log phase were collected by centrifugation at 150 g for 10 minutes, and washed three times with cold Hank's solution by re-suspension and centrifugation. The collected HT-2 cells were re-suspended in RPMI-1640 and incubated at 37° C., 5% CO2 for 30 minutes. The cells were further washed twice with RPMI-1640 by re-suspension and centrifugation, and re-suspended to final concentration of 2×10^5/ml with RPMI-1640.
rIL-2 was diluted to the following concentration with RPMI-1640: 500 IU/ml, 250 IU/ml, 125 IU/ml, 62.5 IU/ml, 31.25 IU/ml, and […].
A 96 well cell culture plate was set up with three parallel wells per combination:
Negative control: 100 μl RPMI-1640+100 μl HT-2 cell suspension
rIL-2 standard: 100 μl rIL-2 solution+100 μl HT-2 cell suspension
Assay well: 100 μl diluted supernatant+100 μl HT-2 cell suspension
The plate was incubated at 37° C., 5% CO2 for 68 hours, then centrifuged at 150 g for 15 minutes and the supernatant removed. 100 μl 0.5 mg/ml MTT in RPMI-1640 without phenolsulfonphthalein was added into each well. After shaking for 3-4 minutes to re-suspend the cells, continue to incubate for another 4 hours. Samples were then centrifuged at 150 g for 15 minutes and the supernatant was removed. To each well, 120 μl 40 mM HCl-2-propanol was added, mixed for 3-4 minutes and OD analyzed at 570 nm, referenced at 630 nm with an ELISA plate reader.
The average OD of the three parallel wells of each dilution was taken and plotted against concentration on a semi-log paper, concentration on the X-axis. The concentration at 50% OD saturation was obtained for both the testing supernatant and rIL-2.

[3] = immunity organ weight test (thymus gland index, spleen index); assay type: in vivo, BALB/c mice; conditions: X ± SD; for weight of thymus gland (thymus gland index): IFN-γ and IL-2 groups 3×10^5 IU/kg/day; for weight of spleen (spleen index): peptide 500 μg/kg/day i.p. 15 days
Method: as §1
(§4) One day after the last test substance administration (day 16), the liver, spleen, and thymus gland were separated and blotted dry with filter paper and weighed. The phagocytosis index α was calculated as below: α=(^3√K)(W÷WLS) key: W: body weight WLS: weight of liver plus spleen Thymus gland index(%)=(thymus weight/body weight)×100% Spleen index(%)=(spleen weight/body weight)×100%

[4] = tested on: T lymphocyte; set-up: species or system BALB/c mice; conditions: mouse, in vivo, ip
[5] = tested on: anti-SRBC antibody; assay: Sheep Red Blood Cell (SRBC) hemolysis test, anti-SRBC antibody formation; assay type: in vivo, BALB/c mice; conditions: SRBC on day 12, IFN-γ and IL-2 groups 3×10^5 IU/kg/day, X ± SD
Method: Sheep red blood cells (SRBC) were prepared by collecting blood from cervical vein and put into a sterile flask with glass beads. The flask was shaken for 3 minutes and the blood then mixed with Alsever solution (glucose 2.05 g, NaCl 0.4 g, […] 0.8 g, adjust to 100 ml with distilled water) and stored at 4° C. Immediately before use, samples were centrifuged at 130 g, 5 minutes to collect the SRBC. The cells were washed two times by re-suspension and centrifugation in normal saline. Then the cell pellet was collected by centrifugation at 180 g for 10 minutes and re-suspended in saline to make the final working SRBC suspension, 2% (v/v).
Complement was prepared by adding 10 volumes of fresh Cavy serum into one volume centrifuge packed SRBC, and then gently shaking for 30 minutes at 4° C. The SRBC was removed by centrifugation at 200 g for 10 minutes. 10 volumes of normal saline were added to obtain the working complement solution.
The test substances were administered as described in section 1.1, plus intraperitoneal injection 0.2 ml SRBC per mouse on day 12. On the day after the last test substance administration (day 16), blood was collected from the eye canthus and left at room temperature for one hour for serum exudation. After centrifugation at 200 g for 10 minutes, the serum was diluted by 500 times with normal saline.
To 1 ml diluted mouse serum of each mouse, 0.5 ml SRBC suspension was added. Ice cold. Then 1 ml working complement solution was added and incubated at 37° C. water bath for 10 minutes. Reactions were terminated by ice cold. Samples were then centrifuged at 200 g for 10 minutes to obtain the supernatant.
To 1 ml of this supernatant, 3 ml Drabkin solution was added and left at room temperature for 10 minutes. OD540nm was obtained.
Reference OD540nm was obtained by mixing 0.25 ml SRBC suspension with Drabkin solution to 4 ml and placed at room temperature for 10 minutes before OD540nm was taken. Sample serum index=(OD540nm of test sample[…]reference OD540nm)×500 3. The Effect of Peptides on the Phagocytosis Function of Mononuclear Phagocyte and the Weight of Immune Organ^[8,9].

[6] = tested on: T lymphocyte; assay: T lymphocyte transformation test (ConA, MTT) on spleen cells of treated mice; assay type: in vivo, BALB/c mice; set-up: key: OD of assay wells divided by OD of control wells; conditions: peptide 500 μg/kg/day i.p. 15 days; IFN-γ and IL-2 groups 3×10^5 IU/kg/day; X ± SD
Method: as §1, §2, §3
50 μl/well MTT of 1 mg/ml in RPMI-1640 was added to the cell pellet and the cells re-suspended by shaking for 2 minutes. The incubation was continued for 4 hours. The supernatant was discarded after centrifugation at 150 g for 10 minutes. 120 μl 40 mM HCl-2-propanol was added to the cell pellet and shaken for 3 minutes. to obtain OD570nm of each well referenced at 630 nm. An ELISA reader was used
Each mouse formed three assay wells and three control wells. The Stimulation Index (SI) of each mouse was obtained by first deriving the average OD of the three parallel wells, then dividing the value of the assay wells by the control wells.

[7] = tested on: mononuclear phagocyte; assay: carbon particle clearance test, phagocytotic activity of mononuclear phagocyte; assay type: in vivo, BALB/c mice; set-up: key: α = (cube root of K)×(body weight ÷ liver+spleen weight); conditions: peptide 5 μg/kg/day i.p. 15 days; IFN-γ and IL-2 groups 3×10^5 IU/kg/day; X ± SD
Method: On the next day after the last test substance administration (day 16), the mice were injected with […] body weight India ink (5 times dilution with normal saline) from the tail vein.
One minute and five minutes after Indian ink injection, 20 μl blood was obtained from the eye can thus with a heparinized tubing. The blood was mixed with 2 ml 0.1% w/v Na2CO3 and then OD680nm obtained. The outline clear index K was calculated by the following formula: K=(lgA1−lgA2)÷(t2−t1) Key: A1: OD680nm at first minute A2: OD680nm at fifth minute t2: 5 minutes […]
as §4

[8] = peptide 0.5 μg/kg/day i.p. 15 days
[9] = peptide 5 μg/kg/day i.p. 15 days
[10] = peptide 50 μg/kg/day i.p. 15 days
[11] = peptide 500 μg/kg/day i.p. 15 days

Row | Sequence | NK cell cytotoxic activity (NK cell activity index) [1, 8] [%] | NK cell cytotoxic activity (NK cell activity index) [1, 9] [%] | NK cell cytotoxic activity (NK cell activity index) [1, 10] | activity of T lymphocyte in secreting IL-2 [2, 8] [IU] | activity of T lymphocyte in secreting IL-2 [2, 9] [IU] | weight of thymus gland (thymus gland index) [3, 8] | weight of thymus gland (thymus gland index) [3, 9] | weight of thymus gland (thymus gland index) [3, 10] | activity of T lymphocyte in secreting IFN [4] | anti-SRBC antibody formation (sample serum index) [5, 9] | anti-SRBC antibody formation (sample serum index) [5, 10] | anti-SRBC antibody formation (sample serum index) [5, 11] | stimulation index (T lymphocyte transformation) [6] | NK cell cytotoxic activity (NK cell activity index) [1, 11] [%] | phagocytotic index [7] | weight of spleen (spleen index) [3] [%] | anti-SRBC antibody formation (sample serum index) [5, 8]
1 | LGMEACGIHETTY [CMS012] | 77 ± 6 | 85 ± 7 | 40 ± 9 % | 59 ± 13 | 65 ± 16 | 0.22 ± 0.06*^ % | 0.27 ± 0.06*^@^ % | 0.26 ± 0.02*^@^ % | 86 ± 9 IU | 81 ± 22*^@ Unit | 50 ± 14* Unit | 141 ± 21*^@^ Unit | 1.6 ± 0.2 |  |  |  | 
2 | LRVAPEEHPVL [CMS013] |  |  |  |  |  |  | 0.21 ± 0.05 % |  | 154 ± 15*^@^ IU | 93 ± 28*^@ Unit | 70 ± 9*^@ Unit | 80 ± 16*^@ Unit |  | 84 ± 9 | 6.7 ± 0.2 | 0.44 ± 0.07 | 7 ± 1* Unit
3 | MATAASSSSL [CMS021] |  |  | 88 ± 12*^@^ % |  |  |  | 0.20 ± 0.06 % |  | 143 ± 17*^@^ IU | 82 ± 30*^@ Unit | 94 ± 20*^@^ Unit |  | 1.6 ± 0.1 |  |  | 0.36 ± 0.04 | 57 ± 9*^@ Unit
